Source: patent US20250049891A1, “NOVEL PEPTIDE DERIVATIVE DERIVED FROM ADIPONECTIN AND USE THEREOF” (SEOUL NATIONAL UNIVERSITY HOSPITAL, priority 2021, published 2025)
Values after ≈ are worked out from the molar mass of the structure shown. Square brackets hold non-standard residues; d marks the D form. Peptide text beside a SMILES is read from it. Phe(4-Cl) = N[CH](Cc1ccc(Cl)cc1)C(=O)O; Phe(4-F) = N[CH](Cc1ccc(F)cc1)C(=O)O

How the values were obtained:
[1] = Plasma stability test, rat plasma; conditions: for remaining at 0.5 h, 1 μM / remaining at 2 h, 1 μM: rat, plasma
[2] = Metabolic stability test, mouse liver microsomes; assay type: in vitro ADME; conditions: NADPH, 37° C.; for remaining at 0.5 h, 1 μM: pH 7.4, mouse liver microsomes 0.5 mg/ml, 30 m
in vitro [3] = conditions: human, plasma
AMPK phosphorylation = AMPK phosphorylation activity in mouse adipocytes (Western blot); assay type: cell-based; conditions: 3T3-L1, 10 μM, 24 hours; for AMPK phosphorylation activity (fold change): APN5 = 1.0
Method: There were confirmed effects of the peptide derivatives of the present disclosure on the expression and receptor activity of adiponectin in mouse adipocytes as a main adiponectin production site. A mouse adipocyte cell line 3T3-L1 was treated with each of the peptide derivatives of the present disclosure at a concentration of 10 μM and cultured for 24 hours, and then cells were obtained. Thereafter, the proteins were extracted and the effect on AMPK phosphorylation, which was responsible for the main downstream signaling of adiponectin, was confirmed by Western blot.

[4] = Metabolic stability test, rat liver microsomes; assay type: in vitro ADME; conditions: NADPH, 37° C.; for remaining at 0.5 h, 1 μM: pH 7.4, rat liver microsomes 0.5 mg/ml, 30 m
CYP2C19 = CYP2C19 (Homo sapiens, UniProt P33261); conditions: microsomes, 10 µM
Method: (§1) Metabolites of each CYP isoenzyme indicator drug produced through the reaction were analyzed by LC-MS/MS using the Shimadzu Nexera XR system and TSQ vantage (Thermo).

CYP2C9 = CYP2C9 (Homo sapiens, UniProt P11712); conditions: microsomes, 10 µM
Method: as §1

CYP1A2 = biological target: T1, CYP1A2 (Homo sapiens, UniProt P05177); conditions: microsomes, 10 µM
T1 sequence (P05177 1-516): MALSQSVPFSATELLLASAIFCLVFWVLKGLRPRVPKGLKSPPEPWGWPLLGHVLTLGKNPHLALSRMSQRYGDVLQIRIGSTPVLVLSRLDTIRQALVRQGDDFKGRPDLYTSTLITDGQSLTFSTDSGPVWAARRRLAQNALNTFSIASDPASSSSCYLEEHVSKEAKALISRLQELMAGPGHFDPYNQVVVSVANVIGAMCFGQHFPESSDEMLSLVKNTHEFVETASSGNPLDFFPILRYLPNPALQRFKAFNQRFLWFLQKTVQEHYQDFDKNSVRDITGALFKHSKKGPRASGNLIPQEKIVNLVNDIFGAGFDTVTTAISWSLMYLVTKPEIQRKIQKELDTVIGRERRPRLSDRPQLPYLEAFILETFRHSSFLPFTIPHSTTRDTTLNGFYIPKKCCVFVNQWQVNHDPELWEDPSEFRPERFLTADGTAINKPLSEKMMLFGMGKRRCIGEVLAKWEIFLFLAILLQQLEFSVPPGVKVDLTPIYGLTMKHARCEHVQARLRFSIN
Method: as §1

CYP2D6 = CYP2D6 (Homo sapiens, UniProt P10635); conditions: microsomes, 10 µM
Method: as §1

CYP3A4 = CYP3A4 (Homo sapiens, UniProt P08684); conditions: microsomes, 10 µM
Method: as §1

in vitro [5] = conditions: human, microsomes, pH 7.4
Solubility test = conditions: kinetic from dmso stock
adiponectin receptor 1 = biological target: T2, adiponectin receptor 1 (Mus musculus, UniProt Q91VH1); experiment: AMPK phosphorylation activity after knockdown of adiponectin receptor 1 (siRNA, Western blot); assay type: cell-based; conditions: 3T3-L1, adiponectin receptor 1 siRNA, 10 μM, 24 hours
T2 construct: a mouse adipocyte cell line 3T3-L1 was treated with siRNA of an adiponectin receptor 1 to be knocked down; endogenous in cells; host or cells: 3T3-L1 mouse adipocyte cell line
T2 sequence (Q91VH1 1-375): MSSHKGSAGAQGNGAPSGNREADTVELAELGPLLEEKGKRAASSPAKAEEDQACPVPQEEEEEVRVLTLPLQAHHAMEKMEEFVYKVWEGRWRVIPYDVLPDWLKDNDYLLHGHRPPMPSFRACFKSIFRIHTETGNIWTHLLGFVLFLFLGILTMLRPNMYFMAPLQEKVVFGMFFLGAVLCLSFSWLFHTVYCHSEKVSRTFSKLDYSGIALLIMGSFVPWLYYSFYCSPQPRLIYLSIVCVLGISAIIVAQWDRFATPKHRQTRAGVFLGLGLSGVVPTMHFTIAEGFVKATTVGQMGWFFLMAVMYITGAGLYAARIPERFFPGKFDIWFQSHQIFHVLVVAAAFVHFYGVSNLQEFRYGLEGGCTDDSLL
Method: In order to verify whether the peptide derivative of the present disclosure bound to an adiponectin receptor 1, a mouse adipocyte cell line 3T3-L1 was treated with siRNA of an adiponectin receptor 1 to be knocked down, and each of the peptide derivatives of the present disclosure was treated at 10 μM and cultured for 24 hours, and then cells were obtained. Thereafter, the proteins were extracted and it was confirmed by Western blot whether AMPK phosphorylation activity, which had been increased by the peptide derivatives, was lost.

[6] = Plasma stability test, human plasma
[7] = Metabolic stability test, human liver microsomes
physchem = conditions: pH 7.4, aqueous buffer, kinetic from dmso stock
[8] = PRISMA HT buffer, pH 7.4, aqueous buffer

Chain of CYP2D6 (P10635 whole entry): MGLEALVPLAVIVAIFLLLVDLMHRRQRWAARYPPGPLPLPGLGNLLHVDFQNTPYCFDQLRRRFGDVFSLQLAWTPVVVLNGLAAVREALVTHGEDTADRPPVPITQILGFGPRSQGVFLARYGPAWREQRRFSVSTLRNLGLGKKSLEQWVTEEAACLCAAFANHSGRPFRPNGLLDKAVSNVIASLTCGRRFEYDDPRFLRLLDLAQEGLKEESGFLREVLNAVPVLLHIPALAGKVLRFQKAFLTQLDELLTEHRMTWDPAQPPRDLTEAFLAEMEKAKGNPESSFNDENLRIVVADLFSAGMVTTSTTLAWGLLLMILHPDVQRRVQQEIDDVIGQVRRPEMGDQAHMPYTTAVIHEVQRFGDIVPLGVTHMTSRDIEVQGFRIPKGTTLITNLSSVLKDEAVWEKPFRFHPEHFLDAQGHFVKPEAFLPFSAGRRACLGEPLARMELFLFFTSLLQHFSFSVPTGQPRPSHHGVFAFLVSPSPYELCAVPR
Chain of CYP2C19 (P33261 whole entry): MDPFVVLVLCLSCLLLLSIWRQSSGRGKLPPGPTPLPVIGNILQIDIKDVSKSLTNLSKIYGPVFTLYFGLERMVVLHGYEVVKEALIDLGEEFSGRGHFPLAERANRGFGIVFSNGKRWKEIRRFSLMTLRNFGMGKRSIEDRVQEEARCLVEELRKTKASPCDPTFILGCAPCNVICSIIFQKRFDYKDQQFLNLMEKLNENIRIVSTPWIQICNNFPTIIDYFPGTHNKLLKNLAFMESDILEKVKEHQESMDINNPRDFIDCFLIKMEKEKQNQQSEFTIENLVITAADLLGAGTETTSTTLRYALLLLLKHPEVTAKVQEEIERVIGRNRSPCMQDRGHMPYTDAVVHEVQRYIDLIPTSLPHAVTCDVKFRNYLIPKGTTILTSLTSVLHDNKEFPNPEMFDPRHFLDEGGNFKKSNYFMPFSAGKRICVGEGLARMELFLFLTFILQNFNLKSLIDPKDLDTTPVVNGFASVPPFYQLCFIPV
Chain of CYP3A4 (P08684 whole entry): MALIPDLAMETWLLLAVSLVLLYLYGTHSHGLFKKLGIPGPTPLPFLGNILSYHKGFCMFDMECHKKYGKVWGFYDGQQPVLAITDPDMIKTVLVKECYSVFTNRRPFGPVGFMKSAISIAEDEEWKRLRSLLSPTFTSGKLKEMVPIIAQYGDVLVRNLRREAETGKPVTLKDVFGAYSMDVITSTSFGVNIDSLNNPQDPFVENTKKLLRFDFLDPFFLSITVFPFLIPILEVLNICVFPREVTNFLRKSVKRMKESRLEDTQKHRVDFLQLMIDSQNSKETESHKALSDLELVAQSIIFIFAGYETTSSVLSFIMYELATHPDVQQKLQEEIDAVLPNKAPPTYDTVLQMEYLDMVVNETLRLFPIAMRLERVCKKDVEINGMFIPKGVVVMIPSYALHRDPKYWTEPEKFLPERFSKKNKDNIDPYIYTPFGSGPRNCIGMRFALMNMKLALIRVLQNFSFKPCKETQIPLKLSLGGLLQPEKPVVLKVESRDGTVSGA
Chain of CYP2C9 (P11712 whole entry): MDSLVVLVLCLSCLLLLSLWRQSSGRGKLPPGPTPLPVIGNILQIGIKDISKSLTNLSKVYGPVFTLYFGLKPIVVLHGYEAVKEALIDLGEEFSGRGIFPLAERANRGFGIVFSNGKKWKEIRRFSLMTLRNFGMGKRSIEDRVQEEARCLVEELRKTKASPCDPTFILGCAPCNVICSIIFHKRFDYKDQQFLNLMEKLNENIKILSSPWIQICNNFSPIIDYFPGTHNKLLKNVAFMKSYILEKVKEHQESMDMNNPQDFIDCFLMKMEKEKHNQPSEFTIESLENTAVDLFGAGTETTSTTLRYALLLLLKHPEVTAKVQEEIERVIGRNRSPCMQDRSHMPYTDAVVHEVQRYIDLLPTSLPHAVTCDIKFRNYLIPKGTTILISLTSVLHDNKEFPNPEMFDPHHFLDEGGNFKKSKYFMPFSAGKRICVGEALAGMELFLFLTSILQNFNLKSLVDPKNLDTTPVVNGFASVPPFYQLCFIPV

`CC(C)C[C@H](NC(=O)CN)C(=O)N[C@@H](Cc1ccc(O)cc1)C(=O)N[C@@H](Cc1ccc(O)cc1)C(=O)N[C@@H](Cc1ccccc1)C(=O)O` [APN5, NH2-GLYYF-OH, reference compound] gave a remaining at 0.5 h, 1 μM [1] of 83.1%, a remaining at 2 h, 1 μM [1] of 70.5% and a remaining at 0.5 h, 1 μM [2] of 9.5%. For the same molecule, the remaining at 0.5 h, 1 μM (in vitro [3]) was < 1%, the remaining at 2 h, 1 μM (in vitro [3]) was < 1% and the “AMPK phosphorylation activity (fold change)” value (AMPK phosphorylation) was 1.0 fold change. For the same molecule, the remaining at 0.5 h, 1 μM [4] was 1.3%, the “CYP inhibition (% of control activity) CYP2C19” value (CYP2C19) was 98.5 % of control activity and the “CYP inhibition (% of control activity) CYP2C9” value (CYP2C9) was >100 % of control activity. The “CYP inhibition (% of control activity) CYP1A2” value (CYP1A2) was 88.8 % of control activity, the “CYP inhibition (% of control activity) CYP2D6” value (CYP2D6) was 92.3 % of control activity and the “CYP inhibition (% of control activity) CYP3A4” value (CYP3A4) was 82.9 % of control activity. The remaining at 0.5 h, 1 μM (in vitro [5]) was 1.7% and the solubility kinetic at 24 h (Solubility test; [8]) was 8.2 µg/mL (≈ 12.4 µM).

In the case of `CC(C)CC(NC(=O)CN)C(=O)NC(Cc1c[nH]c2ccccc12)C(=O)NC(Cc1ccc(O)cc1)C(=O)NC(Cc1ccccc1)C(N)=O` (centres unmarked) [DS-17, NH2-GLWYF-NH2] (H-GLWYF-NH2; configuration not given here), the “AMPK phosphorylation activity (fold change)” value (AMPK phosphorylation) is reported as 1.2 fold change, the “AMPK phosphorylation activity compared to APN5 (in words)” value (AMPK phosphorylation) is reported as “significant effect of increasing AMPK phosphorylation activity” and the “AMPK phosphorylation activity after knockdown of the adiponectin receptor 1” value (adiponectin receptor 1) is reported as “decreased the AMPK phosphorylation activity after knockdown of the adiponectin receptor 1”.

For `CCC(C)C(NC(=O)CN)C(=O)NC(Cc1c[nH]c2ccccc12)C(=O)NC(Cc1ccc(O)cc1)C(=O)NC(Cc1ccccc1)C(N)=O` (centres unmarked) [DS-18, NH2-GIWYF-NH2] (H-GIWYF-NH2; configuration not given here), the “AMPK phosphorylation activity (fold change)” value (AMPK phosphorylation) was 1.2 fold change, the “AMPK phosphorylation activity compared to APN5 (in words)” value (AMPK phosphorylation) was “significant effect of increasing AMPK phosphorylation activity” and the “AMPK phosphorylation activity after knockdown of the adiponectin receptor 1” value (adiponectin receptor 1) was “decreased the AMPK phosphorylation activity after knockdown of the adiponectin receptor 1”.

In the case of `Cc1cc(CC(NC(=O)C(CC(=O)O)NC(=O)CN)C(=O)NC(Cc2ccc(O)cc2)C(=O)NC(Cc2ccccc2)C(N)=O)cc(C)c1O` (centres unmarked) [DS-41, NH2-GDY(Dmt)YF-NH2], the remaining at 0.5 h, 1 μM [1] is reported as > 100%, the remaining at 2 h, 1 μM [1] is reported as 99.6% and the remaining at 0.5 h, 1 μM [2] is reported as 95.2%. The remaining at 0.5 h, 1 μM ([6]; human, plasma) was < 1%, the remaining at 2 h, 1 μM ([6]; human, plasma) was < 1% and the remaining at 0.5 h, 1 μM ([7]; human, microsomes, pH 7.4) was 95.8%. The remaining at 0.5 h, 1 μM [4] was 75.1%.

For `O=C(COc1ccc(C(=O)c2ccccc2)cc1)NC1CCN(Cc2ccccc2)CC1` [DS-43, adiporon, reference compound], the “Plasma stability (% remaining) Rat, 30 m” value ([1]; rat plasma, 1 μM, 37° C., 30 m) was >100 % remaining, the “Plasma stability (% remaining) Rat, 120 m” value ([1]; rat plasma, 1 μM, 37° C., 120 m) was >100 % remaining and the “Metabolic stability (% remaining) Mouse, 30 m” value ([2]; mouse liver microsomes 0.5 mg/ml, 1 μM) was 3.1 % remaining. For the same molecule, the “Plasma stability (% remaining) Human, 30 m” value ([6]; human plasma, 1 μM, 37° C., 30 m) was >100 % remaining, the “Plasma stability (% remaining) Human, 120 m” value ([6]; human plasma, 1 μM, 37° C., 120 m) was >100 % remaining and the “Metabolic stability (% remaining) Human, 30 m” value ([7]; human liver microsomes 0.5 mg/ml, 1 μM, NADPH, 37° C., 30 m) was 54.9 % remaining. The “Metabolic stability (% remaining) Rat, 30 m” value ([4]; rat liver microsomes 0.5 mg/ml, 1 μM) was 2.3 % remaining, the “CYP inhibition (% of control activity) CYP2C19” value (CYP2C19) was 66.0 % of control activity and the “CYP inhibition (% of control activity) CYP2D6” value (CYP2D6) was 30.3 % of control activity. For the same molecule, the “CYP inhibition (% of control activity) CYP3A4” value (CYP3A4) was 90.3 % of control activity and the solubility kinetic at 24 h (Solubility test; PRISMA HT buffer (diluted 1:40 in distilled water), pH 7.4, pH 7.4, aqueous buffer) was 43.7 µg/mL (≈ 102 µM).

With `CC(C)CC(NC(=O)CN)C(=O)NC(Cc1ccc(F)cc1)C(=O)NC(Cc1ccc(O)cc1)C(=O)NC(Cc1ccccc1)C(N)=O` (centres unmarked) [DS-51, NH2-GLF(4-F)YF-NH2] (H-GL[Phe(4-F)]YF-NH2; configuration not given here) the “AMPK phosphorylation activity (fold change)” value (AMPK phosphorylation) was 1.3 fold change, the “AMPK phosphorylation activity compared to APN5 (in words)” value (AMPK phosphorylation) was “significant effect of increasing AMPK phosphorylation activity” and the “AMPK phosphorylation activity after knockdown of the adiponectin receptor 1” value (adiponectin receptor 1) was “decreased the AMPK phosphorylation activity after knockdown of the adiponectin receptor 1”. It also gave a solubility at 24 h (physchem) of 136 µg/mL (≈ 204 µM).

For `CC(C)CC(NC(=O)CN)C(=O)NC(Cc1ccc(Cl)cc1)C(=O)NC(Cc1ccc(O)cc1)C(=O)NC(Cc1ccccc1)C(N)=O` (centres unmarked) [DS-52, NH2-GLF(4-C1)YF-NH2] (H-GL[Phe(4-Cl)]YF-NH2; configuration not given here), the “AMPK phosphorylation activity (fold change)” value (AMPK phosphorylation) was 1.2 fold change, the “AMPK phosphorylation activity compared to APN5 (in words)” value (AMPK phosphorylation) was “significant effect of increasing AMPK phosphorylation activity” and the “AMPK phosphorylation activity after knockdown of the adiponectin receptor 1” value (adiponectin receptor 1) was “decreased the AMPK phosphorylation activity after knockdown of the adiponectin receptor 1”.

`O=C(O)Cc1ccccc1Nc1c(Cl)cccc1Cl` [Diclofenac] gave a solubility kinetic at 24 h (Solubility test; [8]) of 157 µg/mL (≈ 530 µM).

In the case of `Nc1ccc(/N=N/c2ccccc2)c(N)n1` [Phenazopyridine], the solubility kinetic at 24 h (Solubility test; [8]) is reported as 23.8 µg/mL (≈ 111 µM).
